Series [1] deals with T1, Programmed cell death protein 1/Programmed cell death 1 ligand 1 (Homo sapiens, UniProt Q9NZQ7). The series can be described thus: Inhibition of human Fc-tagged PD1 N-terminal domain (Leu25 to Gln167 residues) expressed in HEK293 cells/human His-tagged PDL1 (Phe19 to Arg238 residues) expressed in HEK293 cells protein-protein interaction after 1 hr by APC-labeled anti-His antibody/Eu-labeled anti-human IgG based HTRF assay. It counts as cell-based. On the technique in general: In TR-FRET formats the signal depends on donor and acceptor labels being close together.
T1 sequence (Q15116 whole entry, the tested form may be a part): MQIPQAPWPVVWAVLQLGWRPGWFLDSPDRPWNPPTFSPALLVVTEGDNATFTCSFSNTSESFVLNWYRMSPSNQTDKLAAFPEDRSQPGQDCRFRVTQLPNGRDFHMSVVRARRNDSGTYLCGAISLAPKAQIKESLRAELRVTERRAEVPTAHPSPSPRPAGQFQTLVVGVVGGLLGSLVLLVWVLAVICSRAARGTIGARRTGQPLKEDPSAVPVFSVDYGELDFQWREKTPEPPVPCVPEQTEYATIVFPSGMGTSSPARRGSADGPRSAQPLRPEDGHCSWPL
T1 sequence (Q9NZQ7 whole entry, the tested form may be a part): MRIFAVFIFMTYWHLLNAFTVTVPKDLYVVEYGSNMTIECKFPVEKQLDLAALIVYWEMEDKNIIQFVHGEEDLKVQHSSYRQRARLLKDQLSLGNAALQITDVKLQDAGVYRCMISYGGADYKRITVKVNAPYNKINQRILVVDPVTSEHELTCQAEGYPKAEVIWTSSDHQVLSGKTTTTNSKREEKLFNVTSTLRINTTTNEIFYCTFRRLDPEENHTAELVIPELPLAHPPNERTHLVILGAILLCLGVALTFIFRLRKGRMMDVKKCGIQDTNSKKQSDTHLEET

In series [2] the target is T1, Programmed cell death protein 1/Programmed cell death 1 ligand 1. Briefly: (§1) Inhibition of PD1/PDL1 interaction in human Jurkat cells co-cultured with human U2OS cells expressing PDL1 assessed as reduction in SHP1 recruitment preincubated with U2OS cells for 60 mins followed by Jurkat cell addition and measured after 2 hrs by Pathhunter chemiluminescent assay. Format: cell-based.

Series [3] has the same target. The series can be described thus: Inhibition of human PD1 stably expressed in human Jurkat T cells co-expressing NFAT-induced luciferase/human PDL1 stably expressed in CHOK1 cells co-expressing aAPC protein-protein interaction assessed as increase in NFAT signaling measured after 6 hrs by bio-glo luciferase reporter gene assay. Format: cell-based.
Series [4] in a line: Cytotoxicity against CHOK1 cells stably expressing human PDL1 co-cultured with human Jurkat T cell expressing human PD1 measured after 24 hrs by XTT assay. It counts as cell-based, Cricetulus griseus, CHO-K1. The settings on record: chinese hamster; read-out: MNCC.
Series [5] is described as follows: Cytotoxicity against human Jurkat T cell expressing human PD1 co-cultured with CHOK1 cells stably expressing human PDL1 measured after 24 hrs by XTT assay. It counts as cell-based. The settings on record: read-out: MNCC. (Tetrazolium assays rely on reduction of a dye to a coloured formazan, in cell work by metabolically active cells.)
A short description of series [6]: Cytotoxicity against CHOK1 cells stably expressing human PDL1 co-cultured with human Jurkat T cell expressing human PD1 assessed as growth inhibition measured after 24 hrs by XTT assay. Format: cell-based, Cricetulus griseus, CHO-K1. The settings on record: chinese hamster.
Series [7] in a line: Cytotoxicity against human Jurkat T cell expressing human PD1 co-cultured with CHOK1 cells stably expressing human PDL1 assessed as growth inhibition measured after 24 hrs by XTT assay. Format: cell-based.
A short description of series [8]: Toxicity weighted activity index, ratio of GI50 for cytotoxicity against CHOK1 cells stably expressing human PDL1 co-cultured with human Jurkat T cell expressing human PD1 to EC50 for inhibition of PD1/PDL1 interaction in human Jurkat cells co-cultured with human U2OS cells expressing PDL1. Format: cell-based. The settings on record: chinese hamster; read-out: Ratio GI50/EC50.

A short description of series [9]: Toxicity weighted activity index, ratio of GI50 for Cytotoxicity against human Jurkat T cell expressing human PD1 co-cultured with CHOK1 cells stably expressing human PDL1 to EC50 for inhibition of PD1/PDL1 interaction in human Jurkat cells co-cultured with human U2OS cells expressing PDL1. Format: cell-based. The settings on record: read-out: Ratio GI50/EC50.
Series [10] can be described thus: Toxicity weighted activity index, ratio of GI50 for cytotoxicity against CHOK1 cells stably expressing human PDL1 co-cultured with human Jurkat T cell expressing human PD1 to EC50 for inhibition of human PD1 stably expressed in human Jurkat T cells co-expressing NFAT-induced luciferase/human PDL1 stably expressed in CHOK1 cells co-expressing aAPC protein-protein interaction. Format: cell-based. The settings on record: chinese hamster; read-out: Ratio GI50/EC50.

A short description of series [11]: Toxicity weighted activity index, ratio of GI50 for Cytotoxicity against human Jurkat T cell expressing human PD1 co-cultured with CHOK1 cells stably expressing human PDL1 to EC50 for inhibition of human PD1 stably expressed in human Jurkat T cells co-expressing NFAT-induced luciferase/human PDL1 stably expressed in CHOK1 cells co-expressing aAPC protein-protein interaction. Format: cell-based. The settings on record: read-out: Ratio GI50/EC50.

The target of series [12] is Programmed cell death 1 ligand 1 (Homo sapiens) (UniProt Q9NZQ7). Briefly: Binding affinity to 15N-labelled human PDL1 assessed as induction of oligomerization by 1H-NMR spectra analysis.
Programmed cell death 1 ligand 1 (Homo sapiens), sequence (Q9NZQ7 whole entry): as the sequence (Q9NZQ7 whole entry, the tested form may be a part) above
The target is the same in series [13]. Briefly: Binding affinity to 15N-labelled human PDL1 assessed as induction of protein oligomerization by 1H-15N HMQC spectra analysis.
Series [14] deals with Programmed cell death protein 1/Programmed cell death 1 ligand 1 (Homo sapiens) (UniProt Q15116+Q9NZQ7). Described as §1. It counts as cell-based.

The term IC50 denotes the concentration needed to halve the response being measured. High values mean weaker potency, low ones greater potency. The EC50 is the concentration that produces a half-maximal response. The term GI50 denotes the concentration that inhibits growth by half.

Activity calls are given as the source filed them. The rule behind the calls is not given here.

In series [1], `CC(=O)NCCNCc1ccc(OCc2ccc(COc3ccc(CNCCNC(C)=O)c(OCc4cncc(C#N)c4)c3)cc2)cc1OCc1cncc(C#N)c1` registered a concentration for half-maximal inhibition (IC50) of 8.24 µM.
Compound `CC(=O)NCCNCc1ccc(OCc2ccc3cc(COc4ccc(CNCCNC(C)=O)c(OCc5cncc(C#N)c5)c4)ccc3c2)cc1OCc1cncc(C#N)c1` registered an IC50 in series [1] of 1.17 µM. This IC50 is about 7-fold lower than that of the compound before.
In [1], `CCNCc1cc(C)c(OCc2cccc(-c3cccc(COc4cc(OCc5cncc(C#N)c5)c(CNCC)cc4C)c3C)c2C)cc1OCc1cncc(C#N)c1` had a concentration for half-maximal inhibition (IC50) of 0.0038 µM.
In the case of `CC(=O)NCCNCc1cc(C)c(OCc2cccc(-c3ccccc3)c2C)cc1OCc1cncc(C#N)c1`, inhibition in series [1] was half-maximal at 0.0025 µM (IC50). Further, the concentration for a half-maximal effect (EC50) in series [2] is 0.219 µM; in series [3] it was 3 µM. Further, the MNTC at 24 h in series [4] and in series [5] was 2560 nM each time. The GI50 at 24 h in [6] and in series [7] was 8.1 µM in each case. The selectivity ratio in series [8] stood at 37; in [9], 37; in series [10], 2.7; in [11], 2.7. The outcome in [12] and in series [13] was Active.
`CCNCc1cc(C)c(OCc2cccc(-c3ccccc3)c2C)cc1OCc1cncc(C#N)c1` displayed an IC50 in [1] of 0.0022 µM.
On to `CC(=O)NCCNCc1ccc(OCc2cccc(COc3ccc(CNCCNC(C)=O)c(OCc4cncc(C#N)c4)c3)c2)cc1OCc1cncc(C#N)c1`, for which the IC50 in series [1] was more than 10 µM.
On to `COc1nc(OCc2cccc(-c3cccc(COc4ccc(CNCCNC(C)=O)c(OC)n4)c3C)c2C)ccc1CNCCNC(C)=O`, for which inhibition in series [1] was half-maximal at 0.025 µM (IC50). In addition, the inhibition result in series [14] was “Dose-dependent effect”. Further, the EC50 in series [2] was found to be 0.334 µM; in series [3] it was 4.21 µM. For the same compound, the MNTC at 24 h in series [4] and in series [5] was 2560 nM each time. Besides, the 50% growth inhibitory concentration (GI50) at 24 h in series [6] and in series [7] was 3.1 µM in each case. The selectivity ratio stood at 9.3 in series [8], 9.3 in series [9], 0.7 in series [10] and 0.7 in series [11]. In addition, the outcome in [12] and in series [13] was Active.
`CC(=O)NCCNCc1ccc(OCc2ccc(COc3ccc(CNCCNC(C)=O)c(OCc4cncc(C#N)c4)c3)c3ccccc23)cc1OCc1cncc(C#N)c1`: in series [1], the IC50 worked out at 0.462 µM.
`CC(=O)NCCNCc1cc(C)c(OCc2cccc(-c3cccc(COc4cc(OCc5cncc(C#N)c5)c(CNCCNC(C)=O)cc4C)c3C)c2C)cc1OCc1cncc(C#N)c1`: in series [14], the inhibition entry is “Dose-dependent effect”. The MNTC at 24 h in [4] and in series [5] was 2560 nM in each case. Besides, the 50% growth inhibitory concentration (GI50) at 24 h in series [6] and in series [7] was 11.8 µM in each case. Besides, the outcome in [12] and in series [13] was Active.
As to `COc1nc(OCc2cccc(-c3ccccc3)c2C)ccc1CNCCNC(C)=O`, the MNTC at 24 h in [4] and in series [5] was 2560 nM each time. For the same compound, the GI50 at 24 h in [6] and in series [7] was 4.5 µM throughout.

Source of the values: ChEMBL document CHEMBL4311949, “Design, Synthesis, Evaluation, and Structural Studies of C2-Symmetric Small Molecule Inhibitors of Programmed Cell Death-1/Programmed Death-Ligand 1 Protein-Protein Interaction” (J Med Chem, 2019).
